Values after ≈ are worked out from the molar mass of the structure shown. Read-outs that look alike come from different tables or passages of the source.
What was measured:
[1] = tested on: Bacteroides corrodens; experiment: Agar-dilution MIC (anaerobes); format: cell-based; conditions: Table 12; 24-hour; B. corrodens 1874
Text: (§1) The A41030 antibiotics, factors A, B, and C, are active against a genus of anaerobic bacteria identified as Bacteroides sp., the 24-hour MIC values being determined by the agar-dilution method, and are set forth in Table 12, which follows.

[2] = tested on: Bacteroides vulgatis; experiment: Agar-dilution MIC (anaerobes); format: cell-based; conditions: Table 12; 24-hour; B. vulgatis 1563
Text: as §1

[3] = tested on: Peptostreptococcus intermedius; experiment: Agar-dilution MIC (anaerobes); format: cell-based
[4] = tested on: Bacteroides corrodens; experiment: Agar-dilution MIC (anaerobes); format: cell-based; conditions: Table 14; Bacteroides corrodens 1874
[5] = Solubility in solvents; format: physicochemical; conditions: solvents as named
Text: The seven antibiotic factors are recovered from the fermentation and are obtained as a mixture, the A41030 complex. It will be recognized that the ratio of the factors in the A41030 complex will vary, depending upon the fermentation conditions used. The individual factors […], and G are separated and isolated as individual compounds, as hereinafter described.

[6] = tested on: Peptococcus prevoti; experiment: Agar-dilution MIC (anaerobes); format: cell-based
[7] = tested on: Peptostreptococcus anaerobius; experiment: Agar-dilution MIC (anaerobes); format: cell-based
[8] = tested on: B. thetaiotaomicron; format: cell-based
Text: (§2) The agar-dilution procedure described by the International Collaborative study (ICS) group was used to determine the minimum inhibitory concentrations (MIC's).

[9] = tested on: Bacteroides fragilis; experiment: Agar-dilution MIC (anaerobes); format: cell-based
Text: as §2

[10] = Electrometric titration (pKa); format: physicochemical; conditions: electrometric titration in 66% dimethylformamide in water
[11] = tested on: S. pyogenes; experiment: Experimental bacterial infection in mice, subcutaneous ED50; format: in vivo; conditions: two doses subcutaneously
Experimental: (§3) All of the A41030 factors tested have shown in vivo antimicrobial activity against experimental bacterial infections. When two doses of test compound were administered subcutaneously to mice in illustrative infections, the activity observed is measured as an ED50 value [effective dose in mg./kg. to protect fifty percent of the test animals: See Warren Wick, et al., J. Bacteriol. 81, 233-235 (1961)].

[12] = tested on: S. pneumoniae; experiment: as above; format: in vivo; conditions: two doses subcutaneously
Experimental: as §3

[13] = tested on: Staph. aureus; experiment: as above; format: in vivo; conditions: two doses subcutaneously
Experimental: as §3

[14] = tested on: Fusobacterium necrophorum; experiment: Agar-dilution MIC (anaerobes); format: cell-based; conditions: Table 14; Fusobacterium necrophorum 6054A
[15] = tested on: Streptococcus pyogenes; experiment: Agar-dilution MIC; format: cell-based; conditions: 24 hours, Streptococcus pyogenes C203
Text: as §2

[16] = tested on: Streptococcus sp. (Group D); experiment: Agar-dilution MIC; format: cell-based; conditions: 24 hours
Text: as §2

[17] = tested on: Peptococcus asaccharolyticus; experiment: Agar-dilution MIC (anaerobes); format: cell-based; conditions: Table 15
Experimental: (§4) The MIC values were determined by the agar-dilution method, and are recorded in Table 15, which follows.

[18] = tested on: S. pyogenes; experiment: In vivo oral activity against S. pyogenes in mice
[19] = tested on: Clostridium perfringens; format: cell-based; conditions: Table 14; Clostridium perfringens 81
[20] = tested on: Clostridium difficile; format: cell-based; conditions: Table 16
Text: The A41030 antibiotic factors A, B, C, D, E, F, and G, are also active against a number of strains of Clostridium difficile, as determined by the agar-dilution method.

[21] = tested on: Clostridium difficile; format: cell-based; conditions: Table 14; Clostridium difficile 2994
[22] = tested on: Pc. constellatus; experiment: Agar-dilution MIC (anaerobes); format: cell-based, Peptococcus constellatus; conditions: Table 15; Pc. constellatus 1468
Experimental: as §4

[23] = tested on: Bacteroides melaninogenicus; experiment: Agar-dilution MIC (anaerobes); format: cell-based; conditions: Table 14; Bacteroides melaninogenicus 2736

In the case of `N[C@H]1C(=O)N[C@@H]2Cc3ccc(c(Cl)c3)Oc3cc4cc(c3O)Oc3ccc(cc3Cl)[C@@H](O)[C@@H]3NC(=O)C(NC(=O)[C@@H]4NC(=O)[C@@H](NC2=O)c2cc(O)cc(c2)Oc2cc1ccc2O)c1ccc(O)c(c1)-c1c(O)cc(O)cc1[C@@H](C(=O)O)NC3=O` [A41030 factor B], the MIC [1] is reported as 32 µg/mL (≈ 26.7 µM), the MIC [2] is reported as 32 µg/mL (≈ 26.7 µM) and the MIC ([3]; Table 14, Peptostreptococcus intermedius 1264) is reported as 0.5 µg/mL (≈ 0.417 µM). For the same compound, the MIC ([3]; Table 15, Ps. intermedius 1264) was ≤ 0.03 µg/mL, the MIC ([3]; Table 15, Ps. intermedius 1524) was 0.25 µg/mL (≈ 0.209 µM) and the MIC ([3]; Table 15, Ps. intermedius 1624) was 0.5 µg/mL (≈ 0.417 µM). The MIC [4] was 64 µg/mL (≈ 53.4 µM), the Solubility [5] was “soluble in the same solvents as factor A” and the MIC ([6]; Table 14, Peptococcus prevoti 1281) was ≤ 0.25 µg/mL. For the same compound, the MIC ([6]; Table 15, Pc. prevoti 1281) was 0.5 µg/mL (≈ 0.417 µM), the MIC ([6]; Table 15, Pc. prevoti 1293) was 0.25 µg/mL (≈ 0.209 µM) and the MIC ([6]; Table 15, Pc. prevoti 1407) was 0.5 µg/mL (≈ 0.417 µM). For the same compound, the MIC ([7]; Table 14, Peptostreptococcus anaerobius 1428) was ≤ 0.25 µg/mL, the MIC ([7]; Table 15, Ps. anaerobius 8) was 0.25 µg/mL (≈ 0.209 µM) and the MIC ([7]; Table 15, Ps. anaerobius 52) was 0.5 µg/mL (≈ 0.417 µM). The MIC ([7]; Table 15, Ps. anaerobius 59) was 0.25 µg/mL (≈ 0.209 µM), the MIC ([7]; Table 15, Ps. anaerobius 1418) was 0.06 µg/mL (≈ 0.05 µM) and the MIC ([7]; Table 15, Ps. anaerobius 1428) was 0.25 µg/mL (≈ 0.209 µM). The MIC ([7]; Table 15, Ps. anaerobius 1451) was 0.25 µg/mL (≈ 0.209 µM), the MIC ([7]; Table 15, Ps. anaerobius 1477) was 0.125 µg/mL (≈ 0.104 µM) and the MIC ([8]; Table 12, 24-hour, B. thetaiotaomicron 1438) was 32 µg/mL (≈ 26.7 µM). It also gave an MIC ([8]; Table 12, 24-hour, B. thetaiotaomicron 1900A) of 128 µg/mL (≈ 107 µM), an MIC ([8]; Table 14, Bacteroides thetalotaomicron 1438) of 32 µg/mL (≈ 26.7 µM) and an MIC ([9]; Table 12, 24-hour, B. fragilis 2) of 32 µg/mL (≈ 26.7 µM). It also gave an MIC ([9]; Table 12, 24-hour, B. fragilis 9) of 32 µg/mL (≈ 26.7 µM), an MIC ([9]; Table 12, 24-hour, B. fragilis 103) of 32 µg/mL (≈ 26.7 µM) and an MIC ([9]; Table 12, 24-hour, B. fragilis 104) of 32 µg/mL (≈ 26.7 µM). It also gave an MIC ([9]; Table 12, 24-hour, B. fragilis 106) of 32 µg/mL (≈ 26.7 µM), an MIC ([9]; Table 12, 24-hour, B. fragilis 107) of 32 µg/mL (≈ 26.7 µM) and an MIC ([9]; Table 12, 24-hour, B. fragilis 108) of 32 µg/mL (≈ 26.7 µM). It also gave an MIC ([9]; Table 12, 24-hour, B. fragilis 110) of 64 µg/mL (≈ 53.4 µM), an MIC ([9]; Table 12, 24-hour, B. fragilis 111) of 32 µg/mL (≈ 26.7 µM) and an MIC ([9]; Table 12, 24-hour, B. fragilis 112) of 32 µg/mL (≈ 26.7 µM). For the same compound, the MIC ([9]; Table 12, 24-hour, B. fragilis 113) was 32 µg/mL (≈ 26.7 µM), the MIC ([9]; Table 12, 24-hour, B. fragilis 1451) was 64 µg/mL (≈ 53.4 µM) and the MIC ([9]; Table 12, 24-hour, B. fragilis 1470) was 64 µg/mL (≈ 53.4 µM). It also gave an MIC ([9]; Table 12, 24-hour, B. fragilis 1877) of 32 µg/mL (≈ 26.7 µM), an MIC ([9]; Table 12, 24-hour, B. fragilis 9032) of 32 µg/mL (≈ 26.7 µM) and an MIC ([9]; Table 14, Bacteroides fragilis 111) of 64 µg/mL (≈ 53.4 µM). The MIC ([9]; Table 14, Bacteroides fragilis 1877) was 32 µg/mL (≈ 26.7 µM), the MIC ([9]; Table 14, Bacteroides fragilis 1936B) was 32 µg/mL (≈ 26.7 µM) and the “pKa, first titratable group” value [10] was “about 5.6”. For the same compound, the “pKa, second titratable group” value [10] was ~7.5, the ED50 [11] was 1.4 mg/kg and the ED50 [12] was 1.4 mg/kg. For the same compound, the ED50 [13] was < 0.43 mg/kg, the MIC [14] was 8 µg/mL (≈ 6.67 µM) and the MIC ([15]; Table 17) was 0.25 µg/mL (≈ 0.209 µM). The MIC ([15]; Table 18) was 0.125 µg/mL (≈ 0.104 µM), the MIC ([16]; Table 17, Streptococcus sp. Group D 9960) was 1 µg/mL (≈ 0.834 µM) and the MIC ([16]; Table 17, Streptococcus sp. Group D X66) was 1 µg/mL (≈ 0.834 µM). The MIC ([16]; Table 18, Streptococcus sp. Group D 2041) was 0.5 µg/mL (≈ 0.417 µM), the MIC ([16]; Table 18, Streptococcus sp. Group D 2058) was 0.5 µg/mL (≈ 0.417 µM) and the MIC ([16]; Table 18, Streptococcus sp. Group D 8043) was 0.25 µg/mL (≈ 0.209 µM). It also gave an MIC ([16]; Table 18, Streptococcus sp. Group D 9901) of 1 µg/mL (≈ 0.834 µM), an MIC ([16]; Table 18, Streptococcus sp. Group D 9960) of 0.5 µg/mL (≈ 0.417 µM) and an MIC ([16]; Table 18, Streptococcus sp. Group D 12253F) of 0.5 µg/mL (≈ 0.417 µM). For the same compound, the MIC ([16]; Table 18, Streptococcus sp. Group D Mx161) was 0.25 µg/mL (≈ 0.209 µM), the MIC ([16]; Table 18, Streptococcus sp. Group D X66) was 0.25 µg/mL (≈ 0.209 µM) and the MIC ([17]; Pc. asaccharolyticus 1302) was 0.125 µg/mL (≈ 0.104 µM). For the same compound, the MIC ([17]; Pc. asaccharolyticus 1344) was 0.5 µg/mL (≈ 0.417 µM), the “in vivo oral activity” value [18] was > 300 mg./kg.X2 and the MIC [19] was 0.5 µg/mL (≈ 0.417 µM). It also gave an MIC ([20]; C. difficile 78) of 0.5 µg/mL (≈ 0.417 µM), an MIC ([20]; C. difficile 107B) of 0.5 µg/mL (≈ 0.417 µM) and an MIC ([20]; C. difficile 111F) of 1.0 µg/mL (≈ 0.834 µM). For the same compound, the MIC ([20]; C. difficile 1153) was 1.0 µg/mL (≈ 0.834 µM), the MIC ([20]; C. difficile 2634) was 1.0 µg/mL (≈ 0.834 µM) and the MIC ([20]; C. difficile 3424-5B) was 1.0 µg/mL (≈ 0.834 µM). For the same compound, the MIC ([20]; C. difficile 3816) was 1.0 µg/mL (≈ 0.834 µM), the MIC ([20]; C. difficile 3950) was 1.0 µg/mL (≈ 0.834 µM) and the MIC ([20]; C. difficile 6890) was 1.0 µg/mL (≈ 0.834 µM). For the same compound, the MIC ([20]; C. difficile 8484) was 1.0 µg/mL (≈ 0.834 µM), the MIC ([20]; C. difficile A-194) was 1.0 µg/mL (≈ 0.834 µM) and the MIC ([20]; C. difficile A-195) was 1.0 µg/mL (≈ 0.834 µM). For the same compound, the MIC ([20]; C. difficile A-196) was 1.0 µg/mL (≈ 0.834 µM), the MIC ([20]; C. difficile A-279) was 1.0 µg/mL (≈ 0.834 µM) and the MIC ([20]; C. difficile A-280) was 0.5 µg/mL (≈ 0.417 µM). The MIC ([20]; C. difficile A-281) was 1.0 µg/mL (≈ 0.834 µM), the MIC ([20]; C. difficile WAL-2112) was 1.0 µg/mL (≈ 0.834 µM) and the MIC ([20]; C. difficile WAL-3657) was 1.0 µg/mL (≈ 0.834 µM). It also gave an MIC ([20]; C. difficile WAL-4268) of 0.5 µg/mL (≈ 0.417 µM), an MIC [21] of 32 µg/mL (≈ 26.7 µM) and an MIC [22] of 0.5 µg/mL (≈ 0.417 µM). It also gave an MIC [23] of 4 µg/mL (≈ 3.34 µM).

Reference: US4559323A, “A41030 Antibiotics” (Eli Lilly and Company, priority 1984, dated 1985)
